Data: ChEMBL document CHEMBL2010775, “Anti-proliferative effects of the novel ceramide analog (S)-2-(benzylideneamino)-3-hydroxy-N-tetrade-cylpropanamide in chemoresistant cancer” (2012)
The source made the active and inactive calls. The rule behind the calls is not given here.

Experiments:
[1] = system: MDA-MB-468; assay: Antiproliferative activity against human MDA-MB-468 cells assessed as decrease in Ki-67 staining after 48 hrs by immunofluorescence staining; assay type: functional; parameters: scale not given: the % may be the effect or the level left
[2] = system: MDA-MB-231; assay: Antiproliferative activity against human MDA-MB-231 cells assessed as decrease in Ki-67 staining after 48 hrs by immunofluorescence staining; assay type: functional; parameters: scale not given: the % may be the effect or the level left
[3] = Antiproliferative activity against human MCF-7TN-R cells assessed as decrease in Ki-67 staining after 48 hrs by immunofluorescence staining; assay type: functional; parameters: scale not given: the % may be the effect or the level left
[4] = organism: Homo sapiens; assay: Potentiation of etoposide-induced antiproliferative activity against human MCF-7TN-R cells after 24 hrs by MTT assay; assay type: functional, cell-based
[5] = organism: Homo sapiens; assay: Induction of apoptosis in human MCF-7TN-R cells assessed as decrease in viable cells after 48 hrs by DAPI staining method relative to control; assay type: functional, cell-based
[6] = organism: Homo sapiens; assay: Potentiation of doxorubicin-induced antiproliferative activity against human MCF-7TN-R cells after 24 hrs by MTT assay; assay type: functional, cell-based

SMILES	Activity [1] [%]	Activity [2] [%]	Activity [3] [%]	Activity [4]	Activity [5]	Activity [6]
CCCCCCCCCCCCC/C=C/[C@@H](O)[C@H](CO)NC(=O)CCCCCCC	29.08	46.6	17.19	Active	Active	Active
CCCCCCCCCCCCCCNC(=O)[C@H](CO)/N=C/c1ccccc1	25.19	74.6	19.28	Active	Active	Active
